Key:
[1] = target: T1, Amine oxidase [flavin-containing] A (Homo sapiens, UniProt P21397); assay: Activity at recombinant human MAO-A expressed in baculovirus infected BT1 cells assessed as hydrogen peroxide generation rate per min/mg using p-tyramine as substrate at 200 uM preincubated for 30 mins by Amplex Red assay relative to control
T1 sequence (P21397 whole entry): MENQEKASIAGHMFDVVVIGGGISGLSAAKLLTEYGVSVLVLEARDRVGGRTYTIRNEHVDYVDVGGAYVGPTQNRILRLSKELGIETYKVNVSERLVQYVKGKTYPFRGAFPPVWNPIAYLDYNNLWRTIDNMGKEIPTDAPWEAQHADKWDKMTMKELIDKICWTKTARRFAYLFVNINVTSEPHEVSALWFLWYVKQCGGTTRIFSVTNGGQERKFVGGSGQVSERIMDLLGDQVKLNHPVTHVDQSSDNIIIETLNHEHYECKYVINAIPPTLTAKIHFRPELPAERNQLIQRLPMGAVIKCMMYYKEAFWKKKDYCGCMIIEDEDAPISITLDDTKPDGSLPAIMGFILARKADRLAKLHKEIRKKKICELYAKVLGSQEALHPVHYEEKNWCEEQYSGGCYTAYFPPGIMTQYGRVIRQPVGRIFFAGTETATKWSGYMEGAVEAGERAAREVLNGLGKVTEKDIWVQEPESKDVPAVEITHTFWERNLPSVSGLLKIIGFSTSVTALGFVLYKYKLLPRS

[2] = target: T2, Amine oxidase [flavin-containing] B (Homo sapiens, UniProt P27338); assay: Activity at recombinant human MAO-B expressed in baculovirus infected BT1 cells assessed as hydrogen peroxide generation rate preincubated for 30 mins by Amplex Red assay
T2 sequence (P27338 whole entry): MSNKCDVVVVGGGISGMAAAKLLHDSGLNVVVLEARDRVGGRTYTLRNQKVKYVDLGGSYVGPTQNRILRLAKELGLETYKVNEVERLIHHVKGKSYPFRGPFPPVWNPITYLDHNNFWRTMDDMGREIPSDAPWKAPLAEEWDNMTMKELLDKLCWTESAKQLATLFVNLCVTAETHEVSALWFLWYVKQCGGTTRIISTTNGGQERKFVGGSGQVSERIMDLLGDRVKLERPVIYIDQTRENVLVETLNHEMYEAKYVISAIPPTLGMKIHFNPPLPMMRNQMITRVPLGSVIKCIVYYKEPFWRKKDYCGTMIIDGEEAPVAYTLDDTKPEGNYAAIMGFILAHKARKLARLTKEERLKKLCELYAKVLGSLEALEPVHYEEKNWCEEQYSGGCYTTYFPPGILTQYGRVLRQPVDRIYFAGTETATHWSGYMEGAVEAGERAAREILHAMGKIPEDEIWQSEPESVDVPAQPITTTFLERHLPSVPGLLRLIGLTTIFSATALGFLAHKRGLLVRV

[3] = target: T2, Amine oxidase [flavin-containing] B; assay: Ratio of relative Vmax to Km for recombinant human MAO-B expressed in baculovirus infected BT1 cells assessed as hydrogen peroxide generation rate using benzylamine as substrate at 200 uM preincubated for 30 mins by Amplex Red assay
[4] = target: T2, Amine oxidase [flavin-containing] B; assay: Activity at recombinant human MAO-B expressed in baculovirus infected BT1 cells assessed as hydrogen peroxide generation rate per min/mg using benzylamine as substrate at 200 uM preincubated for 30 mins by Amplex Red assay relative to control
[5] = target: T1, Amine oxidase [flavin-containing] A; assay: Activity at recombinant human MAO-A expressed in baculovirus infected BT1 cells assessed as hydrogen peroxide generation rate preincubated for 30 mins by Amplex Red assay; settings: 0.5 h
[6] = target: T1, Amine oxidase [flavin-containing] A; assay: Ratio of relative Vmax to Km for recombinant human MAO-A expressed in baculovirus infected BT1 cells assessed as hydrogen peroxide generation rate using p-tyramine as substrate at 200 uM preincubated for 30 mins by Amplex Red assay
[7] = target: T1, Amine oxidase [flavin-containing] A; assay: Ratio of relative Vmax to Km for recombinant human MAO-A expressed in baculovirus infected BT1 cells assessed as hydrogen peroxide generation rate preincubated for 30 mins by Amplex Red assay; settings: 0.5 h
[8] = target: T2, Amine oxidase [flavin-containing] B; assay: Ratio of relative Vmax to Km for recombinant human MAO-B expressed in baculovirus infected BT1 cells assessed as hydrogen peroxide generation rate preincubated for 30 mins by Amplex Red assay; settings: 0.5 h
[9] = target: T2, Amine oxidase [flavin-containing] B; assay: Activity at recombinant human MAO-B expressed in baculovirus infected BT1 cells assessed as hydrogen peroxide generation rate preincubated for 30 mins by Amplex Red assay relative to control
[10] = Cytotoxicity against human SH-SY5Y cells after 24 hrs by Annexin V-PE-based flow cytometry; assay type: cell-based; settings: for IC50: Homo sapiens, SH-SY5Y; for Activity: human, sh-sy5y
[11] = target: T2, Amine oxidase [flavin-containing] B; assay: Ratio of residual Vmax to Km for recombinant human MAO-B expressed in baculovirus infected BT1 cells assessed as residual activity using benzylamine as substrate at 20 uM preincubated for 30 mins by Amplex Red assay
[12] = target: T1, Amine oxidase [flavin-containing] A; assay: Ratio of residual Vmax to Km for recombinant human MAO-A expressed in baculovirus infected BT1 cells assessed as residual activity using benzylamine as substrate at 20 uM preincubated for 30 mins by Amplex Red assay
[13] = target: T1, Amine oxidase [flavin-containing] A; assay: Irreversible inhibition of recombinant human MAO-A expressed in baculovirus infected BT1 cells using p-tyramine as substrate by Lineweaver-Burk plot analysis
[14] = target: T1, Amine oxidase [flavin-containing] A; assay: Competitive inhibition of MAOA in human SH-SY5Y cells using p-tyramine as substrate preincubated for 5 mins by Lineweaver-Burk plot analysis; assay type: cell-based
[15] = target: T1, Amine oxidase [flavin-containing] A; assay: Inhibition of recombinant human MAO-A expressed in baculovirus infected BT1 cells assessed as residual activity using p-tyramine as substrate at 50 uM at 37 degC
[16] = target: T1, Amine oxidase [flavin-containing] A; assay: Inhibition of recombinant human MAO-A expressed in baculovirus infected BT1 cells assessed as residual activity using p-tyramine as substrate at 100 uM preincubated for 24 hrs measured after 10 mins; settings: read-out: Activity
[17] = target: T1, Amine oxidase [flavin-containing] A; assay: Inhibition of recombinant human MAO-A expressed in baculovirus infected BT1 cells using p-tyramine as substrate after 20 to 80 mins by Lineweaver-Burk plot analysis
[18] = target: T2, Amine oxidase [flavin-containing] B; assay: biochemical; assay type: cell-based
[19] = target: T1, Amine oxidase [flavin-containing] A; assay: Inhibition of recombinant human MAO-A expressed in baculovirus infected BT1 cells assessed as residual activity using p-tyramine as substrate at 100 uM after 10 mins; settings: read-out: Activity
[20] = target: T1, Amine oxidase [flavin-containing] A; assay: Inhibition of recombinant human MAO-A expressed in baculovirus infected BT1 cells assessed as residual activity using p-tyramine as substrate at 50 uM at 25 degC
[21] = target: T1, Amine oxidase [flavin-containing] A; assay: Inhibition of recombinant human MAO-A expressed in baculovirus infected BT1 cells using p-tyramine as substrate at 20 to 240 uM by Lineweaver-Burk plot analysis
[22] = target: T2, Amine oxidase [flavin-containing] B; assay: Reversible inhibition of recombinant human MAO-B expressed in baculovirus infected BT1 cells using benzylamine as substrate at 200 uM preincubated for 30 mins by Lineweaver-Burk plot analysis
[23] = target: T1, Amine oxidase [flavin-containing] A; assay: Mixed type inhibition of recombinant human MAO-A expressed in baculovirus infected BT1 cells using p-tyramine as substrate by Lineweaver-Burk plot analysis
[24] = target: T1, Amine oxidase [flavin-containing] A; assay: Reversible inhibition of recombinant human MAO-A expressed in baculovirus infected BT1 cells using p-tyramine as substrate by Lineweaver-Burk plot analysis
[25] = target: T2, Amine oxidase [flavin-containing] B; assay: Mixed type inhibition of recombinant human MAO-B expressed in baculovirus infected BT1 cells using benzylamine as substrate at 200 uM preincubated for 30 mins by Lineweaver-Burk plot analysis
[26] = target: T1, Amine oxidase [flavin-containing] A; assay: Activity at recombinant human MAO-A expressed in baculovirus infected BT1 cells assessed as hydrogen peroxide generation rate preincubated for 30 mins by Amplex Red assay relative to control
[27] = target: T1, Amine oxidase [flavin-containing] A; assay: Activity at recombinant human MAO-A expressed in baculovirus infected BT1 cells assessed as hydrogen peroxide generation rate using p-tyramine as substrate at 500 uM preincubated for 30 mins by Amplex Red assay
[28] = target: T1, Amine oxidase [flavin-containing] A; assay: Activity at recombinant human MAO-A expressed in baculovirus infected BT1 cells assessed as hydrogen peroxide generation rate using p-tyramine as substrate at 500 uM preincubated for 30 mins by Amplex Red assay relative to control
[29] = target: T1, Amine oxidase [flavin-containing] A; assay: Ratio of relative Vmax to Km for recombinant human MAO-A expressed in baculovirus infected BT1 cells assessed as hydrogen peroxide generation rate using p-tyramine as substrate at 500 uM preincubated for 30 mins by Amplex Red assay
[30] = target: T2, Amine oxidase [flavin-containing] B; assay: Activity at recombinant human MAO-B expressed in baculovirus infected BT1 cells assessed as hydrogen peroxide generation rate using benzylamine as substrate at 500 uM preincubated for 30 mins by Amplex Red assay
[31] = target: T2, Amine oxidase [flavin-containing] B; assay: Ratio of relative Vmax to Km for recombinant human MAO-B expressed in baculovirus infected BT1 cells assessed as hydrogen peroxide generation rate using benzylamine as substrate at 500 uM preincubated for 30 mins by Amplex Red assay
[32] = target: T2, Amine oxidase [flavin-containing] B; assay: Activity at recombinant human MAO-B expressed in baculovirus infected BT1 cells assessed as hydrogen peroxide generation rate using benzylamine as substrate at 500 uM preincubated for 30 mins by Amplex Red assay relative to control

NCCCNCCCCNCCCNCc1cccnc1
fold change (FC) [1]: 0.52 | Activity [2]: Not Active | fold change (FC) [3]: 0.72 | fold change (FC) [4]: 0.93 | Activity [5]: Not Active | fold change (FC) [6]: 0.72

NCCCOCCCCOCCCNCc1cccs1
Km [5]: > 1200 µM | fold change (FC) [7]: 0.06 | fold change (FC) [8]: 0.21 | fold change (FC) [9]: 0.19

C[S+]([O-])CCCCN=C=S (stereo not drawn) [SULFORAPHANE]
IC50 [10]: 20 µM | fold change (FC) [11]: 1.01 | fold change (FC) [12]: 0.78

CN(CCCCCCCCCCCCN=C=S)Cc1ccccc1
Ki [13]: 5 µM | Ki [14]: 4.9 µM | kinact [15]: 0.00075 s⁻¹ | activity at 100 µM [16]: 100% | inhibition (INH) [17]: Dose-dependent effect | IC50 [10]: 180 µM | Activity [10]: Dose-dependent effect | Ki [18]: 9 µM | activity at 100 µM [19]: 64% | kinact [20]: 0.0002 s⁻¹ | fold change (FC) [11]: 0.2 | fold change (FC) [12]: 0.22 | inhibition (INH) [21]: Dose-dependent effect

NCCCNCCCCNCCCNCc1ccccc1
fold change (FC) [1]: 0.48 | Ki [22]: 785 µM | fold change (FC) [3]: 0.66 | fold change (FC) [4]: 0.97 | Ki [23]: 170 µM | fold change (FC) [6]: 0.38 | Ki [24]: 188 µM | Ki [25]: 291 µM

NCCCCCCCCCCCCNCc1ccccc1
IC50 [10]: 327 µM | Activity [10]: Dose-dependent effect | fold change (FC) [26]: 0.08 | fold change (FC) [7]: 0.4 | fold change (FC) [8]: 18.6 | fold change (FC) [9]: 1

CN(CCCCCCCCCCCCN)Cc1ccccc1
fold change (FC) [26]: 0.03 | fold change (FC) [7]: 0.6 | fold change (FC) [8]: 17.5 | fold change (FC) [9]: 0.24

c1ccc(CNCCCCCCCCCCCCNCc2ccccc2)cc1
fold change (FC) [1]: 0.52 | Ki [22]: 1050 µM | fold change (FC) [3]: 0.37 | fold change (FC) [4]: 0.62 | Ki [23]: 55 µM | fold change (FC) [6]: 0.29 | Ki [24]: 186 µM | Ki [25]: 129 µM

C=CCN=C=S [ALLYL ISOTHIOCYANATE]
fold change (FC) [11]: 0.98 | fold change (FC) [12]: 1

NCCCCCCCCCCCCNCc1cccs1
fold change (FC) [26]: 0.1 | fold change (FC) [7]: 0.29 | fold change (FC) [8]: 12 | fold change (FC) [9]: 0.53

NCCCNCCCCNCCCNCc1cccs1
fold change (FC) [1]: 0.52 | Activity [2]: Not Active | Ki [22]: 414 µM | fold change (FC) [3]: 0.05 | fold change (FC) [4]: 0.63 | Activity [5]: Not Active | Ki [23]: 226 µM | fold change (FC) [6]: 0.57 | Ki [24]: 997 µM | Ki [25]: 23 µM

NCCCCCCCCNCCCNCc1cccs1
Km [27]: < 0.01 µM | fold change (FC) [28]: < 0.01 | fold change (FC) [1]: 0.96 | fold change (FC) [29]: < 0.01 | Km [30]: < 0.01 µM | fold change (FC) [3]: 0.75 | fold change (FC) [4]: 0.71 | fold change (FC) [31]: < 0.01 | fold change (FC) [6]: 0.69 | fold change (FC) [32]: < 0.01

NCCCNCCCCNCCCN [SPERMINE]
fold change (FC) [1]: 0.77 | fold change (FC) [3]: 0.76 | fold change (FC) [4]: 0.98 | fold change (FC) [6]: 0.86

NCCCNCCCCNCCCNCc1ccc2ccccc2c1
fold change (FC) [1]: 0.52 | Activity [2]: Not Active | fold change (FC) [3]: 0.91 | fold change (FC) [4]: 0.81 | Activity [5]: Not Active | fold change (FC) [6]: 0.62
